From US4886807A, “Novel pyrimidopyrimidine derivative, process for producing it and pharmaceutical composition” (Nippon Zoki Pharmaceutical Co., Ltd., priority 1988, dated 1989)

Legend:
[1] = system: PCA (passive cutaneous anaphylaxis) reaction; assay: Anti-allergic effect: PCA (passive cutaneous anaphylaxis) reaction in rats; assay type: in vivo, rats (Wister-strain, male); conditions: oral, 1 hour before challenge; for Leak of Dye: control 10.7 ± 1.0; for inhibition in vivo at 20 mg/kg / inhibition in vivo at 50 mg/kg / inhibition in vivo at 100 mg/kg: Rattus norvegicus, inhibition of dye leakage
Description: PCA (passive cutaneous anaphylaxis) reaction in rats was taken as an index to an anti-allergic effect of the compound of the present invention.
In order to perform sensitization, anti-DNP-Asc (dinitrophenylated Ascaris extracts) serum diluted with saline was injected intradermally at 4 sites on the shaved back of groups of 10 Wister-strain male rats (6 weeks of age). 1 hour after oral administration of the test drug, the mixture of equivalent amounts of DNP-Asc (5 mg/ml) and 2% Evans blue were intravenously injected to generate PCA reaction. 30 minutes thereafter, rats were killed by decapitation and exsanguinated. The skin was opened in order to evaluate the leakage of blue dye. The obtained skin was dissolved in 2N potassium hydroxide, then 2N phosphoric acid and acetone were added thereto. The amount of dye was determined by measurement of absorbance at 620 nm after centrifugation.

Acute toxicity test = conditions: mouse, in vivo, mice, mortality for 7 days after administration, probit method
Description: The test compounds were administered to groups of 10 ddy-strain male mice (weighing about 20 g). LD50 values of the compounds of the invention were calculated by the probit method based on mortality for 7 days after drug administration.

Cn1c(=O)c2[nH]cnc2n(C)c1=O [Theophylline, reference compound]
Leak of Dye ([1]; 20 mg/kg): 3.5 ± 1.3 μg/site
inhibition in vivo at 20 mg/kg ([1]; 20 mg/kg): 67.3%

Cn1c(=O)c2cnc(-c3ccccc3)nc2n(C)c1=O [compound 2, 7-phenyl-1,3-dimethylpyrimido[4,5-d]pyrimidine-2,4-dione]
Leak of Dye ([1]; 50 mg/kg): 8.2 ± 0.9 μg/site
inhibition in vivo at 50 mg/kg ([1]; 50 mg/kg): 23.4%

Cc1ncc2c(=O)n(C)c(=O)n(C)c2n1 [compound 3, 1,3,7-trimethylpyrimido[4,5-d]pyrimidine-2,4-dione]
Leak of Dye ([1]; 50 mg/kg): 4.2 ± 0.5 μg/site
inhibition in vivo at 50 mg/kg ([1]; 50 mg/kg): 60.7%
LD50 at 168 h (Acute toxicity test; po): 690 mg/kg

Cn1c(=O)c2cnc(C(F)(F)F)nc2n(C)c1=O [compound 4, 7-trifluoromethyl-1,3-dimethylpyrimido[4,5-d]pyrimidine-2,4-dione]
Leak of Dye ([1]; 50 mg/kg): 6.6 ± 1.1 μg/site
inhibition in vivo at 50 mg/kg ([1]; 50 mg/kg): 38.3%

Cn1c(=O)c2cncnc2n(C)c1=O [compound 5, 1,3-dimethylpyrimido[4,5-d]pyrimidine-2,4-dione]
Leak of Dye ([1]; 50 mg/kg): 4.1 ± 0.8 μg/site
inhibition in vivo at 50 mg/kg ([1]; 50 mg/kg): 61.7%

Cn1c(=O)c2cnc(N)nc2n(C)c1=O [compound 6, 7-amino-1,3-dimethylpyrimido[4,5-d]pyrimidine-2,4-dione]
Leak of Dye ([1]; 20 mg/kg): 5.0 ± 0.9 μg/site
Leak of Dye ([1]; 50 mg/kg): 2.3 ± 0.7 μg/site
Leak of Dye ([1]; 100 mg/kg): 0.7 ± 0.2 μg/site
inhibition in vivo at 20 mg/kg ([1]; 20 mg/kg): 53.3%
inhibition in vivo at 50 mg/kg ([1]; 50 mg/kg): 78.5%
inhibition in vivo at 100 mg/kg ([1]; 100 mg/kg): 93.5%
LD50 at 168 h (Acute toxicity test; ip): 140 mg/kg
LD50 at 168 h (Acute toxicity test; po): 940 mg/kg

Cn1c(=O)c2cnc(N)nc2n(-c2ccccc2)c1=O [compound 7, 7-amino-1-phenyl-3-methylpyrimido[4,5-d]pyrimidine-2,4-dione]
Leak of Dye ([1]; 100 mg/kg): 5.4 ± 0.7 μg/site
inhibition in vivo at 100 mg/kg ([1]; 100 mg/kg): 49.5%

CNc1ncc2c(=O)n(C)c(=O)n(C)c2n1 [compound 8, 7-methylamino-1,3-dimethylpyrimido[4,5-d]pyrimidine-2,4-dione]
Leak of Dye ([1]; 20 mg/kg): 7.6 ± 1.6 μg/site
Leak of Dye ([1]; 50 mg/kg): 2.8 ± 0.7 μg/site
inhibition in vivo at 20 mg/kg ([1]; 20 mg/kg): 29%
inhibition in vivo at 50 mg/kg ([1]; 50 mg/kg): 73.8%

Cn1c(=O)c2c(N)ncnc2n(C)c1=O [compound 9, 5-amino-1,3-dimethylpyrimido[4,5-d]pyrimidine-2,4-dione]
Leak of Dye ([1]; 20 mg/kg): 5.9 ± 1.2 μg/site
Leak of Dye ([1]; 100 mg/kg): 0.6 ± 0.1 μg/site
inhibition in vivo at 20 mg/kg ([1]; 20 mg/kg): 44.9%
inhibition in vivo at 100 mg/kg ([1]; 100 mg/kg): 94.4%

CCn1c(=O)c2c(N)ncnc2n(CC)c1=O [compound 10, 5-amino-1,3-diethylpyrimido[4,5-d]pyrimidine-2,4-dione]
Leak of Dye ([1]; 100 mg/kg): 1.6 ± 0.4 μg/site
inhibition in vivo at 100 mg/kg ([1]; 100 mg/kg): 85%
LD50 at 168 h (Acute toxicity test; po): 748 mg/kg

CC(C)Cn1c(=O)n(C)c(=O)c2c(N)ncnc21 [compound 11, 5-amino-1-iso-butyl-3-methylpyrimido[4,5-d]pyrimidine-2,4-dione]
Leak of Dye ([1]; 100 mg/kg): 2.9 ± 0.8 μg/site
inhibition in vivo at 100 mg/kg ([1]; 100 mg/kg): 72.9%

Cc1nc(N)c2c(=O)n(C)c(=O)n(C)c2n1 [compound 12, 5-amino-1,3,7-trimethylpyrimido[4,5-d]pyrimidine-2,4-dione]
Leak of Dye ([1]; 100 mg/kg): 1.0 ± 0.3 μg/site
inhibition in vivo at 100 mg/kg ([1]; 100 mg/kg): 90.7%
LD50 at 168 h (Acute toxicity test; po): 707 mg/kg

Cn1c(=O)c2c(N)nc(N)nc2n(C)c1=O [compound 14, 5,7-diamino-1,3-dimethylpyrimido[4,5-d]pyrimidine-2,4-dione]
Leak of Dye ([1]; 100 mg/kg): 1.9 ± 0.5 μg/site
inhibition in vivo at 100 mg/kg ([1]; 100 mg/kg): 82.2%

CNc1ncnc2c1c(=O)n(C)c(=O)n2C [compound 16, 5-methylamino-1,3-dimethylpyrimido[4,5-d]pyrimidine-2,4-dione]
Leak of Dye ([1]; 100 mg/kg): 1.7 ± 0.6 μg/site
inhibition in vivo at 100 mg/kg ([1]; 100 mg/kg): 84.1%

CCn1c(=O)c2cnc(N)nc2n(CC)c1=O [compound 17, 7-amino-1,3-diethyl-pyrimido[4,5-d]pyrimidine-2,4-dione]
Leak of Dye ([1]; 100 mg/kg): 2.4 ± 0.7 μg/site
inhibition in vivo at 100 mg/kg ([1]; 100 mg/kg): 77.6%

CC(C)Cn1c(=O)n(C)c(=O)c2cnc(N)nc21 [compound 18, 7-amino-1-iso-butyl 3-methylpyrimido[4,5-d]pyrimidine-2,4-dione]
Leak of Dye ([1]; 100 mg/kg): 4.0 ± 0.6 μg/site
inhibition in vivo at 100 mg/kg ([1]; 100 mg/kg): 62.6%
